Each structure is given as a SMILES string.

For series [1], the target named is T1, Sphingosine kinase 2 (Homo sapiens, UniProt Q9NRA0).
T1 sequence (Q9NRA0 whole entry): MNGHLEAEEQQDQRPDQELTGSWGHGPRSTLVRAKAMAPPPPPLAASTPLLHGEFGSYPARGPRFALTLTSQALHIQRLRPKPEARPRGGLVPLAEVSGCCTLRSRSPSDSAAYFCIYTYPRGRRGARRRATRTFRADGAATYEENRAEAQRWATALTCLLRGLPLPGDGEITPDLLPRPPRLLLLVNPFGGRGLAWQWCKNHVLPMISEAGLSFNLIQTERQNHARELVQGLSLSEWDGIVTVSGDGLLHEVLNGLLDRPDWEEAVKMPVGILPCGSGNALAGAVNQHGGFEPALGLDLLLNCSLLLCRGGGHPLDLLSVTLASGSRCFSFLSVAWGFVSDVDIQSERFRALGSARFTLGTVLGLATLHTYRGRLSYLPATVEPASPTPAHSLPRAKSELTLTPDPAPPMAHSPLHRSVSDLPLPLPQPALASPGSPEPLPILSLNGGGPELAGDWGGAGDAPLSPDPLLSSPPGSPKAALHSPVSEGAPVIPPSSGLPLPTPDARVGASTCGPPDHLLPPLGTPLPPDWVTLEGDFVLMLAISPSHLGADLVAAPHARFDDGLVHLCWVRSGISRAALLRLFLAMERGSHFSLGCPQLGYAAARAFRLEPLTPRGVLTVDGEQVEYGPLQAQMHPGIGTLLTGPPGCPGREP

A short description of series [2]: Tmax in mouse at 20 mg/kg, po. The format is ADME, organism-based. As to conditions: in vivo.
Series [3] can be described thus: Cmax in mouse at 20 mg/kg, po. The class given is ADME, organism-based. More on the design: dose 20 mg/kg, route po. As to conditions: in vivo.
Series [4] is described as follows: AUClast in mouse at 20 mg/kg, po. More on the design: time 0 - last, dose 20 mg/kg, route po. The format is ADME, organism-based. As to conditions: in vivo.
Series [5] is described as follows: AUClast in mouse at 2 mg/kg, iv. The class given is ADME, organism-based. On the set-up: time 0 - last, dose 2 mg/kg, route iv. As to conditions: in vivo.
Series [6] is described as follows: Half life in mouse at 20 mg/kg, po. The format is ADME, organism-based. The conditions noted are these: in vivo.
Series [7] can be described thus: Half life in mouse at 2 mg/kg, iv. As to conditions: in vivo. The format is ADME, organism-based.
Series [8] in a line: Clearance in mouse at 2 mg/kg, iv. The format is ADME, organism-based. The conditions noted are these: in vivo.
A short description of series [9]: Oral bioavailability in mouse at 20 mg/kg. The format is ADME, organism-based. The conditions noted are these: in vivo.

In general, IC50 refers to the concentration needed to halve the response being measured. Regarding `Cc1cc(CS(=O)(=O)c2ccccc2)cc(OCCCCCCCN2CCC[C@@H]2CO)c1`, the IC50 in series [1] was above 10 µM.
On to `Cc1cc(CS(=O)(=O)c2ccccc2)cc(OCc2ccc(CN(C)CCO)cc2)c1`, for which, in series [1], the IC50 is above 10 µM.
The same measure, in the same setting: then `Cc1cc(CS(=O)(=O)c2ccc([N+](=O)[O-])cc2)cc(OCc2ccc(CN3CCC[C@@H]3CO)cc2)c1`, with above 10 µM.
In general, Tmax refers to the time from dosing to the highest level. For orientation: Cmax means the peak of the concentration-time curve. One may read the AUC(0-t) as exposure summed from dosing to a finite time, without extrapolation to infinity. Low readings indicate less exposure, high ones more exposure. What is called half-life is the time needed for the level to fall by half in the phase considered. Read a high half-life as slow decline. A word on the clearance: it is the rate of elimination divided by the concentration. Lower therefore signals inefficient removal. In general, bioavailability refers to dose-corrected exposure relative to a reference, in per cent. `Cc1cc(CS(=O)(=O)C2CC2)cc(OCc2ccc(CN3CCC[C@@H]3CO)cc2)c1`: the Tmax in [2] was determined as 0.25 h. Further, the Cmax in [3] was found to be 83.6 ng/mL. Further, the figures for the AUC(0-t) in series [4] and in [5] were 100 ng·h/mL and 201 ng·h/mL, respectively. For the same compound, the half-life in [6] and in [7] was 1.79 h throughout. The compound further came in with a clearance in series [8] of 164 mL/min/kg. The compound further showed a bioavailability in [9] of 4.95%. This compound gave an IC50 in [1] above 10 µM.
On to `O=S(=O)(Cc1cc(OCc2ccc(CN3CCC[C@@H]3CO)cc2)cc(C(F)(F)F)c1)c1ccccc1`, for which the IC50 in series [1] was above 10 µM.
In turn, `Cc1cc(CS(=O)(=O)c2ccccc2)cc(OCc2ccc(CN3CCCCC3CO)cc2)c1` (centres undefined) yielded an IC50 in series [1] above 10 µM.

These data come from ChEMBL document CHEMBL5154877, “Novel Sphingosine Kinase 1 Inhibitor Suppresses Growth of Solid Tumor and Inhibits the Lung Metastasis of Triple-Negative Breast Cancer” (J Med Chem, 2022).
